Measurements published in the NIST ThermoML archive (doi:10.1021/je4001697).

Conditions: Liquid, Pulse-echo method

Cc1ccccc1 [toluene]
Conditions	speed of sound [m/s]
240 K, 103.32 kPa	1571
240 K, 1104.2 kPa	1575
240 K, 2104.9 kPa	1578.9
240 K, 3105.7 kPa	1582.8
240 K, 4106.3 kPa	1586.7
240 K, 5107.4 kPa	1590.5
240 K, 6107.7 kPa	1594.3
240 K, 7108.4 kPa	1598.1
240 K, 8109.1 kPa	1601.9
240 K, 9109.8 kPa	1605.7
240 K, 10110 kPa	1609.4
240 K, 12612 kPa	1618.6
240 K, 15114 kPa	1627.7
240 K, 17616 kPa	1636.7
240 K, 20117 kPa	1645.6
240 K, 25121 kPa	1663
240 K, 30124 kPa	1680
240 K, 35127 kPa	1696.5
240 K, 40131 kPa	1712.7
240 K, 45134 kPa	1728.5
240 K, 50138 kPa	1744
240 K, 60144 kPa	1774
240 K, 70151 kPa	1802.9
240 K, 80158 kPa	1830.7
240 K, 90165 kPa	1857.6
240 K, 100172 kPa	1883.6
260 K, 102.53 kPa	1476.8
260 K, 1103.4 kPa	1481.1
260 K, 2104 kPa	1485.4
260 K, 3104.8 kPa	1489.7
260 K, 4105.6 kPa	1493.9
260 K, 5106.5 kPa	1498.1
260 K, 6106.8 kPa	1502.3
260 K, 7107.5 kPa	1506.5
260 K, 8108.3 kPa	1510.6
260 K, 9109 kPa	1514.7
260 K, 10110 kPa	1518.8
260 K, 12612 kPa	1528.8
260 K, 15114 kPa	1538.7
260 K, 17615 kPa	1548.5
260 K, 20117 kPa	1558.1
260 K, 25121 kPa	1576.9
260 K, 30124 kPa	1595.2
260 K, 35128 kPa	1613
260 K, 40131 kPa	1630.4
260 K, 45134 kPa	1647.3
260 K, 50138 kPa	1663.9
260 K, 60145 kPa	1695.8
260 K, 70152 kPa	1726.5
260 K, 80160 kPa	1756
260 K, 90166 kPa	1784.3
260 K, 100174 kPa	1811.7
280 K, 103.62 kPa	1385.5
280 K, 1104.5 kPa	1390.2
280 K, 2105.3 kPa	1395
280 K, 3106.2 kPa	1399.7
280 K, 4107.1 kPa	1404.3
280 K, 5107.6 kPa	1408.9
280 K, 6108.1 kPa	1413.5
280 K, 7108.8 kPa	1418
280 K, 8109.4 kPa	1422.5
280 K, 9110.1 kPa	1427
280 K, 10111 kPa	1431.5
280 K, 12612 kPa	1442.4
280 K, 15114 kPa	1453.2
280 K, 17616 kPa	1463.8
280 K, 20118 kPa	1474.2
280 K, 25122 kPa	1494.5
280 K, 30125 kPa	1514.2
280 K, 35128 kPa	1533.3
280 K, 40132 kPa	1551.9
280 K, 45135 kPa	1570
280 K, 50138 kPa	1587.6
280 K, 60145 kPa	1621.5
280 K, 70152 kPa	1654
280 K, 80159 kPa	1685.1
280 K, 90166 kPa	1714.9
280 K, 100173 kPa	1743.7
300 K, 102.33 kPa	1297.2
300 K, 103.33 kPa	1297.1
300 K, 1103.2 kPa	1302.4
300 K, 2104.1 kPa	1307.6
300 K, 3104.7 kPa	1312.7
300.01 K, 1104.2 kPa	1302.4
300.01 K, 2104.9 kPa	1307.6
300.01 K, 3105.6 kPa	1312.7
300.01 K, 4106.4 kPa	1317.8
300.01 K, 5107 kPa	1322.9
300.01 K, 6107.4 kPa	1327.9
300.01 K, 7108.1 kPa	1332.8
300.01 K, 8108.7 kPa	1337.8
300.01 K, 9109.4 kPa	1342.6
300.01 K, 10110 kPa	1347.5
300.01 K, 12612 kPa	1359.4
300.01 K, 15113 kPa	1371.1
300.01 K, 17615 kPa	1382.5
300.01 K, 20117 kPa	1393.8
300.01 K, 25120 kPa	1415.7
300.01 K, 30124 kPa	1436.8
300.01 K, 35127 kPa	1457.3
300.01 K, 40130 kPa	1477.1
300.01 K, 45133 kPa	1496.4
300.01 K, 50136 kPa	1515.1
300.01 K, 60143 kPa	1551.1
300.01 K, 70150 kPa	1585.4
300.01 K, 80158 kPa	1618.1
300.01 K, 90166 kPa	1649.4
300.01 K, 100172 kPa	1679.5
320 K, 102.82 kPa	1211.6
320 K, 102.83 kPa	1211.6
320 K, 1103.6 kPa	1217.3
320 K, 2104.3 kPa	1223.1
320 K, 3105 kPa	1228.7
320 K, 4105.8 kPa	1234.3
320 K, 5106.6 kPa	1239.9
320 K, 6107.1 kPa	1245.4
320 K, 7107.8 kPa	1250.8
320 K, 8108.5 kPa	1256.2
320 K, 9109.2 kPa	1261.5
320 K, 10110 kPa	1266.8
320 K, 12612 kPa	1279.7
320 K, 15113 kPa	1292.4
320 K, 17615 kPa	1304.8
320 K, 20117 kPa	1317
320 K, 25120 kPa	1340.5
320 K, 30124 kPa	1363.2
320 K, 35127 kPa	1385.1
320 K, 40131 kPa	1406.2
320 K, 45134 kPa	1426.7
320 K, 50138 kPa	1446.5
320 K, 60145 kPa	1484.5
320 K, 70152 kPa	1520.6
320 K, 80159 kPa	1554.9
320 K, 90166 kPa	1587.7
320 K, 100173 kPa	1619.1
340 K, 102.94 kPa	1128.5
